For 10 compounds, IC50 results are on record in US7485637B2, “Benzoyl-tetrahydropiperidine derivatives” (Hoffmann-La Roche Inc., priority 2005, dated 2009).

For orientation: IC50 means the concentration that gives 50% inhibition.

Structures are written as SMILES.

In the test the target is T1, mGlyT-1b (Mus musculus, UniProt P28571).
T1 construct: host or cells: Flp-in-CHO
T1 sequence (P28571 1-651 isoform P28571-2): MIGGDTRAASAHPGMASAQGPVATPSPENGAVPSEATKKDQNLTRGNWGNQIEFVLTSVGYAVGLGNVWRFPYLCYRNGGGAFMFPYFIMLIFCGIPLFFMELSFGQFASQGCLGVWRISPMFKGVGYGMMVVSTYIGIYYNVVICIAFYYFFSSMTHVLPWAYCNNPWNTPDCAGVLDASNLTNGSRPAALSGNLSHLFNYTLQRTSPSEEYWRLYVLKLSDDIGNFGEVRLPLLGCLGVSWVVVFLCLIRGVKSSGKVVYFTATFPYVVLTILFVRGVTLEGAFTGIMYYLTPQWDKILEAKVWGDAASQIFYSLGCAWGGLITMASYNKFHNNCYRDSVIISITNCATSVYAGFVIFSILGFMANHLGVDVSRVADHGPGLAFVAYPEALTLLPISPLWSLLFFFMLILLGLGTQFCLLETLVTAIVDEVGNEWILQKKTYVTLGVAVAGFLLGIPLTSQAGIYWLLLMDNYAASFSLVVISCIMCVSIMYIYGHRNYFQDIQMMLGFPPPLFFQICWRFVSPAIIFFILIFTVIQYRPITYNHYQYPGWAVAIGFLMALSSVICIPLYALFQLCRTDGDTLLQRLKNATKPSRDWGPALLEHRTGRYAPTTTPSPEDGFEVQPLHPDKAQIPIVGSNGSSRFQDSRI
Nature of the test: Glycine Uptake Inhibition Assay (mGlyT-1b). To be noted: [3H]-glycine uptake, Flp-in-CHO cells transfected with mGlyT-1b cDNA, 20 min preincubation at 22° C.; read-out: IC50 (μM) at GlyT-1. The format is cell-based. On the procedure: DMEM complete medium: Nutrient mixture F-12 (Gibco Life-technologies), fetal bovine serum (FBS) 5%, (Gibco life technologies), Penicillin/Streptomycin 1% (Gibco life technologies), Hygromycin 0.6 mg/ml (Gibco life technologies), Glutamine 1 mM Gibco life technologies)
Uptake buffer (UB): 150 mM NaCl, 10 mM Hepes-Tris, pH 7.4, 1 mM CaCl2, 2.5 mM KCl, 2.5 mM MgSO4, 10 mM (+) D-glucose.
Flp-in™-CHO (Invitrogen Cat n° R758-07) cells stably transfected with mGlyT1b cDNA.
Glycine Uptake Inhibition Assay (mGlyT-1b)
On day 1 mammalian cells, (Flp-in™-CHO), transfected with mGlyT-1b cDNA, were plated at the density of 40,000 cells/well in complete F-12 medium, without hygromycin in 96-well culture plates. On day 2, the medium was aspirated and the cells were washed twice with uptake buffer (UB). The cells were then incubated for 20 min at 22° C. with either (i) no potential competitor, (ii) 10 mM non-radioactive glycine, (iii) a concentration of a potential inhibitor. A range of concentrations of the potential inhibitor was used to generate data for calculating the concentration of inhibitor resulting in 50% of the effect (e.g. IC50, the concentration of the competitor inhibiting glycine uptake of 50%). A solution was then immediately added containing [^3H]-glycine 60 nM (11-16 Ci/mmol) and 25 μM non-radioactive glycine. The plates were incubated with gentle shaking and the reaction was stopped by aspiration of the mixture and washing (three times) with ice-cold UB. The cells were lysed with scintillation liquid, shaken 3 hours and the radioactivity in the cells was counted using a scintillation counter.

`CS(=O)(=O)c1ccc(C2=CCN(C(=O)c3cc(S(C)(=O)=O)ccc3OC3CCCC3)CC2)cc1` [Example 8, (2-Cyclopentyloxy-5-methanesulfonyl-phenyl)-[4-(4-methanesulfonyl-phenyl)-3,6-dihydro-2H-pyridin-1-yl]-methanone]: the IC50 came to 0.201 µM.

On to `CS(=O)(=O)c1ccc(C2=CCN(C(=O)c3cc([N+](=O)[O-])ccc3N3CCOCC3)CC2)cc1` [Example 6, [4-(4-Methanesulfonyl-phenyl)-3,6-dihydro-2H-pyridin-1-yl]-(2-morpholin-4-yl-5-nitro-phenyl)-methanone], for which the IC50 stood at 0.251 µM.

As for `CS(=O)(=O)c1ccc(OCC2CC2)c(C(=O)N2CC=C(c3ccc(Cl)cc3)CC2)c1` [Example 10, [4-(4-Chloro-phenyl)-3,6-dihydro-2H-pyridin-1-yl]-(2-cyclopropylmethoxy-5-methanesulfonyl-phenyl)-methanone], the IC50 is 0.056 µM.

Regarding `CS(=O)(=O)c1ccc(OCC(F)(F)F)c(C(=O)N2CC=C(c3ccc(C(F)(F)F)cc3)CC2)c1` [Example 4, [5-Methanesulfonyl-2-(2,2,2-trifluoro-ethoxy)-phenyl]-[4-(4-trifluoromethyl-phenyl)3,6-dihydro-2H-pyridin-1-yl]-methanone], the IC50 amounted to 0.122 µM.

For `O=C(c1cc([N+](=O)[O-])ccc1N1CCOCC1)N1CC=C(c2ccc(Cl)cc2)CC1` [Example 2, [4-(4-Chloro-phenyl)-3,6-dihydro-2H-pyridin-1-yl]-(2-morpholin-4-yl-5-nitrophenyl) methanone], the IC50 amounted to 0.432 µM.

Consider `CC(C)Oc1ccc(C#N)cc1C(=O)N1CC=C(c2ccc(Cl)cc2)CC1` [Example 9, 3-[4-(4-Chloro-phenyl)-3,6-dihydro-2H-pyridine-1-carbonyl]-4-isopropoxy-benzonitrile], for which the IC50 stood at 0.28 µM.

`O=C(c1cc([N+](=O)[O-])ccc1N1CCOCC1)N1CC=C(c2ccccc2)CC1` [Example 1, (2-Morpholin-4-yl-5-nitro-phenyl)-(4-phenyl-3,6-dihydro-2H-pyridin-1-yl)-methanone]: the IC50 worked out at 0.803 µM.

Take `CS(=O)(=O)c1ccc(N2CCOCC2)c(C(=O)N2CC=C(c3ccc(C(F)(F)F)cc3)CC2)c1` [Example 5, (5-Methanesulfonyl-2-morpholin-4-yl-phenyl)-[4-(4-trifluoromethyl-phenyl)-3,6 dihydro-2H-pyridin-1-yl]-methanone]: the IC50 was 0.232 µM.

`CC(C)Oc1ccc(S(C)(=O)=O)cc1C(=O)N1CC=C(c2ccc(S(C)(=O)=O)cc2)CC1` [Example 7, (2-Isopropoxy-5-methanesulfonyl-phenyl)-[4-(4-methanesulfonyl-phenyl)-3,6-dihydro-2H-pyridin-1-yl]-methanone]: the IC50 was 0.87 µM.

`N#Cc1ccc(C2=CCN(C(=O)c3cc([N+](=O)[O-])ccc3N3CCOCC3)CC2)cc1` [Example 3, 4-[1-(2-Morpholin-4-yl-5-nitro-benzoyl)-1,2,3,6-tetrahydro-pyridin-4-yl]benzonitrile]: the IC50 was 0.27 µM.
